Our source for the T/C values is PubChem BioAssay AID192 (DTP/NCI, 2004).

In this assay the test system is BDF1 mice, B16 melanoma ip, median survival T/C. Nature of the assay: NCI In Vivo Anticancer Drug Screen. Data for tumor model B16 Melanoma (intraperitoneal) in B6D2F1 (BDF1) mice. Particulars: endpoint: median survival time, higher = longer survival. Put shortly:
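Tumor-bearing mice received test compound or vehicle. Survival or tumor size was then measured in both groups. The treated-group figure was divided by the control-group figure.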

Setting [1] is: dose: 25.0 mg/kg/injection, schedule: Q01DX009 (ip), vehicle: saline with Tween-80.
Setting [2] is: dose: 50.0 mg/kg/injection, schedule: Q01DX009 (ip), vehicle: saline with Tween-80.
The mark [3] stands for this setting: dose: 50.0 mg/kg/injection, schedule: Q01DX009 (ip), vehicle: saline.
Where [4] appears, read: dose: 100.0 mg/kg/injection, schedule: Q01DX009 (ip), vehicle: Klucel (hydroxypropylcellulose) (HPC).
Setting [5] is: dose: 200.0 mg/kg/injection, schedule: Q01DX009 (ip), vehicle: Klucel (hydroxypropylcellulose) (HPC).
The mark [6] stands for this setting: dose: 12.5 mg/kg/injection, schedule: Q01DX009 (ip), vehicle: Klucel (hydroxypropylcellulose) (HPC).
Setting [7] is: dose: 50.0 mg/kg/injection, schedule: Q01DX009 (ip), vehicle: Klucel (hydroxypropylcellulose) (HPC).
[8] abbreviates: dose: 7.5 mg/kg/injection, schedule: Q01DX009 (ip), vehicle: saline.
[9] abbreviates: dose: 15.0 mg/kg/injection, schedule: Q01DX009 (ip), vehicle: saline.
Setting [10] is: dose: 30.0 mg/kg/injection, schedule: Q01DX009 (ip), vehicle: saline.

Inconclusive results and toxic doses are left out.

As for `CC(CCOCC1CO1)OCC1CO1` (stereo not given), the T/C reads like this: (dose: 100.0 mg/kg/injection, schedule: Q04DX003 (ip), vehicle: saline) 100 % of control; (dose: 200.0 mg/kg/injection, schedule: Q04DX003 (ip), vehicle: saline) 108 % of control; (dose: 400.0 mg/kg/injection, schedule: Q04DX003 (ip), vehicle: saline) 110 % of control.

Turning to `C=CCCCC[P+](c1ccccc1)(c1ccccc1)c1ccccc1`, the T/C reads like this: (dose: 1.5 mg/kg/injection, schedule: Q01DX009 (ip), vehicle: saline) 102 % of control; (dose: 3.0 mg/kg/injection, schedule: Q01DX009 (ip), vehicle: saline) 92 % of control.

On to `CC(=O)Nc1ccc2c(Nc3ccc(NS(C)(=O)=O)cc3)c3ccccc3nc2c1`, for which the T/C reads like this: (dose: 3.8 mg/kg/injection, schedule: Q01DX009 (ip), vehicle: saline sonified) 112 % of control; (dose: 7.5 mg/kg/injection, schedule: Q01DX009 (ip), vehicle: saline sonified) 110 % of control; (dose: 15.0 mg/kg/injection, schedule: Q01DX009 (ip), vehicle: saline with Tween-80) 162 % of control; (dose: 30.0 mg/kg/injection, schedule: Q01DX009 (ip), vehicle: saline sonified) 164 % of control; (dose: 30.0 mg/kg/injection, schedule: Q01DX009 (ip), vehicle: saline with Tween-80) 185 % of control; (dose: 200.0 mg/kg/injection, schedule: Q01DX001 (ip), vehicle: saline sonified) 155 % of control. For the same compound, the T/C (dose: 400.0 mg/kg/injection, schedule: Q01DX001 (ip), vehicle: saline sonified) is 194 % of control.

In the case of `CCCCN(C)/N=N/c1nc[nH]c1C(N)=O`, the T/C by setting is: (dose: 10.0 mg/kg/injection, schedule: Q01DX009 (ip), vehicle: carboxymethylcellulose (CMC)) 111 % of control; (dose: 20.0 mg/kg/injection, schedule: Q01DX009 (ip), vehicle: carboxymethylcellulose (CMC)) 120 % of control; under setting [1], 109 % of control; under setting [2], 112 % of control.

Turning to `C=C(C)[C@@]12O[C@@]3(/C=C/C=C/CCCCC)O[C@@H]1[C@@H]1[C@@H]4O[C@]4(COC(=O)CCCCCCCCCCCCCCC)[C@@H](O)[C@]4(O)C(=O)C(C)=CC4[C@@]1(O3)[C@H](C)[C@H]2OC(=O)c1ccccc1` (stereo not given in full), the T/C (dose: 0.5 micrograms/kg/injection, schedule: Q01DX009 (ip), vehicle: saline) was 102 % of control; the T/C (dose: 1.0 micrograms/kg/injection, schedule: Q01DX009 (ip), vehicle: saline) is 106 % of control; the T/C (dose: 1.9 micrograms/kg/injection, schedule: Q01DX009 (ip), vehicle: saline) is 105 % of control; the T/C (dose: 3.8 micrograms/kg/injection, schedule: Q01DX009 (ip), vehicle: saline) is 99 % of control; the T/C (dose: 7.5 micrograms/kg/injection, schedule: Q01DX009 (ip), vehicle: saline) was 102 % of control; the T/C (dose: 15.0 micrograms/kg/injection, schedule: Q01DX009 (ip), vehicle: saline) was 103 % of control. Also, where the note is “dose: 30.0 micrograms/kg/injection, schedule: Q01DX009 (ip), vehicle: saline”, the T/C is 104 % of control.

As to `CC1=CC(C)(C)Nc2ccc(CSc3ccccc3)cc21`, the T/C (dose: 12.5 mg/kg/injection, schedule: Q01DX009 (ip), vehicle: saline + Tween-80 + alcohol) is 112 % of control; the T/C (dose: 25.0 mg/kg/injection, schedule: Q01DX009 (ip), vehicle: saline + Tween-80 + alcohol) is 117 % of control; the T/C (dose: 50.0 mg/kg/injection, schedule: Q01DX009 (ip), vehicle: saline + Tween-80 + alcohol) is 111 % of control; the T/C (dose: 100.0 mg/kg/injection, schedule: Q01DX009 (ip), vehicle: saline + Tween-80 + alcohol) is 96 % of control.

As for `CC(C)c1ccc(NC(=O)Nc2cc(Cl)ccc2Cl)cc1`, the T/C is 93 % of control (dose: 4.0 mg/kg/injection, schedule: Q01DX009 (ip), vehicle: gum acacia); 90 % of control (dose: 8.0 mg/kg/injection, schedule: Q01DX009 (ip), vehicle: gum acacia); 93 % of control (dose: 16.0 mg/kg/injection, schedule: Q01DX009 (ip), vehicle: gum acacia).

Regarding `CCCCCCCCCCCCCCCCCC(=O)NNCCO`, the T/C under setting [2] was 86 % of control.

Consider `NC(=O)Nc1n[nH]c(-c2ccccc2)n1`, for which the T/C is, setting by setting: (dose: 25.0 mg/kg/injection, schedule: Q01DX009 (ip), vehicle: saline) 99 % of control; under setting [3], 99 % of control; (dose: 100.0 mg/kg/injection, schedule: Q01DX009 (ip), vehicle: saline) 86 % of control.

In the case of `CCOC(OCC)C(=O)NNC(C)C`, the T/C is 105 % of control (dose: 6.25 mg/kg/injection, schedule: Q01DX009 (ip), vehicle: saline); 111 % of control (dose: 12.5 mg/kg/injection, schedule: Q01DX009 (ip), vehicle: saline); 100 % of control under setting [3].

For the compound `COCc1cc(C(C)(C)C)c(O)c(C(C)(C)C)c1`, the T/C is, setting by setting: under setting [4], 90 % of control; under setting [5], 92 % of control; (dose: 400.0 mg/kg/injection, schedule: Q01DX009 (ip), vehicle: Klucel (hydroxypropylcellulose) (HPC)) 95 % of control.

Regarding `Cc1cccc(CN2CCN(C(c3ccccc3)c3ccc(Cl)cc3)CC2)c1` (stereo not given), the T/C is, setting by setting: (dose: 3.12 mg/kg/injection, schedule: Q04DX003 (ip), vehicle: Klucel (hydroxypropylcellulose) (HPC)) 97 % of control; (dose: 6.25 mg/kg/injection, schedule: Q04DX003 (ip), vehicle: Klucel (hydroxypropylcellulose) (HPC)) 101 % of control; under setting [6], 86 % of control; (dose: 12.5 mg/kg/injection, schedule: Q04DX003 (ip), vehicle: Klucel (hydroxypropylcellulose) (HPC)) 96 % of control; (dose: 25.0 mg/kg/injection, schedule: Q01DX009 (ip), vehicle: Klucel (hydroxypropylcellulose) (HPC)) 86 % of control; (dose: 25.0 mg/kg/injection, schedule: Q04DX003 (ip), vehicle: Klucel (hydroxypropylcellulose) (HPC)) 96 % of control. Besides, the T/C by setting is: under setting [7], 86 % of control; (dose: 50.0 mg/kg/injection, schedule: Q04DX003 (ip), vehicle: Klucel (hydroxypropylcellulose) (HPC)) 89 % of control; (dose: 100.0 mg/kg/injection, schedule: Q04DX003 (ip), vehicle: Klucel (hydroxypropylcellulose) (HPC)) 88 % of control.

In the case of `N=C(N)SCc1ccc(CSC(=N)N)s1`, the T/C was 101 % of control under setting [8], 99 % of control under setting [9] and 104 % of control under setting [10].

Turning to `O=C1CC2(C(=O)N1CN1CCCCC1)c1ccccc1-c1ccccc12`, the T/C is, setting by setting: under setting [6], 114 % of control; under setting [7], 112 % of control; under setting [4], 112 % of control; under setting [5], 112 % of control.

On to `Cc1cc(Cc2cc(C)cc(C(C)(C)C)c2O)c(O)c(Cc2cc(C)cc(C(C)(C)C)c2O)c1`, for which the T/C reads like this: (dose: 100.0 mg/kg/injection, schedule: Q04DX003 (ip), vehicle: gum acacia) 97 % of control; (dose: 200.0 mg/kg/injection, schedule: Q04DX003 (ip), vehicle: gum acacia) 100 % of control.

Turning to `O=C1c2ccccc2-c2ncccc21`, the T/C was 100 % of control under setting [7], 87 % of control under setting [4] and 96 % of control under setting [5].

On to `CC1(C)CC1(Br)Br`, for which the T/C is, setting by setting: (dose: 6.25 mg/kg/injection, schedule: Q01DX009 (ip), vehicle: saline with Tween-80) 112 % of control; (dose: 12.5 mg/kg/injection, schedule: Q01DX009 (ip), vehicle: saline with Tween-80) 110 % of control; under setting [1], 118 % of control; under setting [2], 102 % of control; (dose: 100.0 mg/kg/injection, schedule: Q01DX009 (ip), vehicle: saline with Tween-80) 110 % of control.

On to `COCCNCCN1CCN(CCCN2c3ccccc3Sc3ccc(C(F)(F)F)cc32)CC1`, for which the T/C reads like this: (dose: 3.75 mg/kg/injection, schedule: Q01DX009 (ip), vehicle: saline) 109 % of control; under setting [8], 107 % of control; under setting [9], 111 % of control; under setting [10], 88 % of control.
